Results on 48 compounds are retold here after patent publication US12612392B2, “Compound, pharmaceutical compositions containing same, synthesis method therefor and use thereof” (SHENZHEN ZHONGGE BIOLOGICAL TECHNOLOGY CO., LTD., priority 2022, dated 2026).

Data set [1] relates to HEK293T/17-ATF4 uORF-Luc-Puro monoclonal cells. The experiment in a line: Cell activity test: ATF4 luciferase reporter, thapsigargin-induced stress. The class given is cell-based. The note with it: Homo sapiens, HEK-293T; ATF4 reporter expression, 50 nM thapsigargin, 6 hours. From the text: The ATF4 luciferase reporter plasmid consists of two parts, i.e., the 5′ untranslated region sequence of the ATF4 gene and the luciferase coding sequence. Specifically, the ATF4 5′ untranslated region sequence (NCBI database number BC022088.2) containing two upstream open reading frames (uORFs), and the firefly luciferase encoding gene were cloned into the pLVX-Puro vector (YouBio, VT1465). The lentivirus packaging plasmids were psPAX2 (YouBio, VT1444) and pMD2.G (YouBio, VT1443). HEK293T/17 cells were transfected with the above three plasmids simultaneously using X-tremeGENE 9 DNA transfection reagent, and after 48 hours, a culture medium containing lentivirus was collected. HEK293T/17 cells transduced with the virus were screened with 1 μg/mL puromycin, and then monoclonal cells were obtained by limiting dilution.
By using this cell line and the cold fluorescence readings, the translational regulation of ATF4 can be detected, and the activity of the eIF2B activator can be tested. The specific experimental process is as follows: 6000 HEK293T/17-ATF4 uORF-Luc-Puro monoclonal cells were plated in a 384-well plate and allowed to adhere overnight. The test compounds were dissolved in DMSO and added together with 50 nM thapsigargin to the cell culture medium and incubated for 6 hours, wherein the thapsigargin was used to cause cellular stress and upregulate the protein translation of ATF4. Six hours after the addition, the cells were lysed using the One-Glo Luciferase Assay Kit (Promega #E6120), and then the cold fluorescence values were read using the LUM program of the EnVision 2104 plate reader.
The ATF4 reporter expression % was calculated as follows:
[formula] • ave_vc: average signal value of negative control • ave_pc: average signal value of positive control • ave_sample: average signal value of sample
The dose-response curves were fitted, and the EC50 values were calculated.
The nonlinear regression log (inhibitor) vs. response—variable slope (four parameters) method of GraphPad 9 software was used to fit the corresponding relationship between the ATF4 reporter expression % and the compound concentration.
X-axis: log value of compound concentration; Y-axis: ATF4 reporter expression %; Top: evaluation of upper asymptote of curve; Bottom: evaluation of lower asymptote of curve; Hillslope: slope of the fitted curve.

Data set [2] is described as follows: Cell membrane permeability (A to B / B to A, efflux ratio). Type of data set: in vitro ADME. The protocol:
The test compounds were diluted from 10 mM stock solutions to a concentration of 10 μM using the transport buffer (HBSS+BSA) and applied to the apical or basolateral side of the cell monolayer. After the incubation at 37° C., 5% CO2 and 95% relative humidity for 120 minutes, the permeability of the test compounds in the A to B direction or the B to A direction was tested in duplicate. In addition, the efflux ratio of each compound was determined. The test substances and reference substances were quantitatively analyzed by the LC-MS/MS method based on the analyte/IS peak area ratio.

pEC50: −log10 of the molar value.

As for `COC1CN(c2nnc(C3CCN(NC(=O)COc4ccc(Cl)c(F)c4)CC3)o2)C1` [Compound 1], the negative-log EC50 (pEC50) in data set [1] is 7.00 to 8.00.

Regarding `COC1CN(c2nnc(C3CCC(NC(=O)COc4ccc(Cl)c(F)c4)CC3)o2)C1` (stereo not drawn) [Compound 2], the negative logarithm of the EC50 (pEC50) in data set [1] was 7.00 to 8.00.

Regarding `O=C(COc1ccc(Cl)c(F)c1)NC12CCC(c3nnc(N4CC(OC(F)(F)F)C4)o3)(CC1)CC2` [Compound 3], the negative logarithm of the EC50 (pEC50) in data set [1] was 8.00 to 9.00.

Compound `O=C(COc1ccc(Cl)c(F)c1)NC12CCC(c3nnc(N4CC(OC(F)(F)F)C4)o3)(CC1)CC2O` (stereo not drawn) [Compound 4] had a negative logarithm of the EC50 (pEC50) in data set [1] of more than 9.00.

In data set [1], `O=C(COc1ccc(Cl)c(F)c1)NN1CCC(c2nnc(N3CC(OC(F)(F)F)C3)o2)CC1` [Compound 7] gave a pEC50 of more than 9.00.

`O=C(COc1ccc(Cl)c(F)c1)NC12CCC(c3nnc(N4CC5(C4)CC(F)(F)C5)o3)(CC1)CC2` [Compound 8]: the negative-log EC50 (pEC50) in data set [1] is 7.00 to 8.00.

In data set [1], `CP(C)(=O)C1CN(c2nnc(C34CCC(NC(=O)COc5ccc(Cl)c(F)c5)(CC3)CC4)o2)C1` [Compound 9] had a pEC50 of less than 7.00.

In data set [1], `O=C(COc1ccc(Cl)c(F)c1)NC12CCC(c3nnc(N4CC(OC(F)(F)C(F)(F)F)C4)o3)(CC1)CC2` [Compound 10] had a negative-log EC50 (pEC50) of 8.00 to 9.00.

Regarding `O=C(COc1ccc(Cl)c(F)c1)N[C@H]1CC[C@H](c2nnc(NC3CC(C(F)(F)F)C3)o2)CC1` (stereo partly drawn) [Compound 11], the pEC50 in data set [1] is 7.00 to 8.00.

As to `Fc1cc(OCC(=S)N[C@H]2CC[C@H](c3nnc(N4CC(OC(F)(F)F)C4)o3)CC2)ccc1Cl` [Compound 12], in data set [1], the pEC50 is 8.00 to 9.00.

Compound `CN(c1nnc([C@H]2CC[C@H](NC(=O)COc3ccc(Cl)c(F)c3)CC2)o1)C1CC(C(F)(F)F)C1` (stereo partly drawn) [Compound 14] showed a pEC50 in data set [1] of 7.00 to 8.00.

In the case of `O=C(COc1ccc(Cl)cc1)N[C@H]1CC[C@H](c2nnc(N3CC(OC(F)(F)F)C3)o2)CC1` [Compound 15], the negative logarithm of the EC50 (pEC50) in data set [1] is more than 9.00.

Regarding `O=C(COc1ccc(Cl)c(F)c1)N[C@@H]1CC[C@@H](c2nnc(N3CC(OC(F)(F)F)C3)o2)OC1` [Compound 16], in data set [1], the negative logarithm of the EC50 (pEC50) is 8.00 to 9.00.

Turning to `O=C(CO[C@H]1C[C@@H](OC(F)(F)F)C1)N[C@H]1CC[C@H](c2nnc(N3CC(OC(F)(F)F)C3)o2)CC1` [Compound 17], in data set [1], the negative logarithm of the EC50 (pEC50) is 7.00 to 8.00.

In the case of `O=C(COc1ccc(Cl)cn1)N[C@H]1CC[C@H](c2nnc(N3CC(OC(F)(F)F)C3)o2)CC1` [Compound 18], the negative logarithm of the EC50 (pEC50) in data set [1] is 7.00 to 8.00.

On to `O=C(COc1ccc(Cl)c(F)c1)N[C@H]1CC[C@H](c2nnc(N3CC(OC(F)F)C3)o2)CC1` [Compound 19], for which, in data set [1], the pEC50 is 8.00 to 9.00.

Take `O=C(COc1ccc(F)cc1)N[C@H]1CC[C@H](c2nnc(N3CC(OC(F)(F)F)C3)o2)CC1` [Compound 21]: the pEC50 in data set [1] was 7.00 to 8.00.

For the compound `O=C(COc1ccccc1Cl)N[C@H]1CC[C@H](c2nnc(N3CC(OC(F)(F)F)C3)o2)CC1` [Compound 22], in data set [1], the pEC50 is less than 7.00.

In the case of `O=C(COc1cccc(Cl)c1)N[C@H]1CC[C@H](c2nnc(N3CC(OC(F)(F)F)C3)o2)CC1` [Compound 23], the pEC50 in data set [1] was 7.00 to 8.00.

Take `O=C(COc1cccc(F)c1)N[C@H]1CC[C@H](c2nnc(N3CC(OC(F)(F)F)C3)o2)CC1` [Compound 24]: the pEC50 in data set [1] is 7.00 to 8.00.

With `O=C(COc1ccc(F)c(Cl)c1)N[C@H]1CC[C@H](c2nnc(N3CC(OC(F)(F)F)C3)o2)CC1` [Compound 25], the negative-log EC50 (pEC50) in data set [1] is 8.00 to 9.00.

In the case of `O=C(COc1ccc(Cl)c(Br)c1)N[C@H]1CC[C@H](c2nnc(N3CC(OC(F)(F)F)C3)o2)CC1` [Compound 26], the negative logarithm of the EC50 (pEC50) in data set [1] was more than 9.00.

Consider `O=C(COc1ccc(Cl)cc1Cl)N[C@H]1CC[C@H](c2nnc(N3CC(OC(F)(F)F)C3)o2)CC1` [Compound 27], for which the negative-log EC50 (pEC50) in data set [1] is 7.00 to 8.00.

In data set [1], `O=C(COc1ccc(Cl)c(Cl)c1)N[C@H]1CC[C@H](c2nnc(N3CC(OC(F)(F)F)C3)o2)CC1` [Compound 28] showed a negative-log EC50 (pEC50) of more than 9.00.

Regarding `O=C(COc1ccccc1F)N[C@H]1CC[C@H](c2nnc(N3CC(OC(F)(F)F)C3)o2)CC1` [Compound 29], the negative logarithm of the EC50 (pEC50) in data set [1] is less than 7.00.

`O=C(COc1ccc(F)cc1F)N[C@H]1CC[C@H](c2nnc(N3CC(OC(F)(F)F)C3)o2)CC1` [Compound 30] showed a negative logarithm of the EC50 (pEC50) in data set [1] of less than 7.00.

In data set [1], `O=C(COc1ccc(F)cc1Cl)N[C@H]1CC[C@H](c2nnc(N3CC(OC(F)(F)F)C3)o2)CC1` [Compound 31] showed a negative-log EC50 (pEC50) of less than 7.00.

In the case of `O=C(COc1cccc(Cl)c1Cl)N[C@H]1CC[C@H](c2nnc(N3CC(OC(F)(F)F)C3)o2)CC1` [Compound 32], the negative-log EC50 (pEC50) in data set [1] is less than 7.00.

Consider `O=C(COc1ccc(Cl)cc1F)N[C@H]1CC[C@H](c2nnc(N3CC(OC(F)(F)F)C3)o2)CC1` [Compound 33], for which the pEC50 in data set [1] was 8.00 to 9.00.

Take `O=C(COc1ccc(F)c(F)c1)N[C@H]1CC[C@H](c2nnc(N3CC(OC(F)(F)F)C3)o2)CC1` [Compound 34]: in data set [1], the pEC50 is 8.00 to 9.00.

For `O=C(COc1ncc(Cl)cn1)N[C@H]1CC[C@H](c2nnc(N3CC(OC(F)(F)F)C3)o2)CC1` [Compound 35], in data set [1], the negative logarithm of the EC50 (pEC50) is less than 7.00.

For the compound `O=C(N[C@H]1CC[C@H](c2nnc(N3CC(OC(F)(F)F)C3)o2)CC1)c1nc(Cl)c[nH]1` [Compound 41], the negative-log EC50 (pEC50) in data set [1] is less than 7.00.

`Cc1csc(C(=O)N[C@H]2CC[C@H](c3nnc(N4CC(OC(F)(F)F)C4)o3)CC2)n1` [Compound 42] had a pEC50 in data set [1] of less than 7.00.

`O=C(N[C@H]1CC[C@H](c2nnc(N3CC(OC(F)(F)F)C3)o2)CC1)c1cc(Cl)c[nH]1` [Compound 43]: the pEC50 in data set [1] is 7.00 to 8.00.

In data set [1], `O=C(N[C@H]1CC[C@H](c2nnc(N3CC(OC(F)(F)F)C3)o2)CC1)c1ccc2cc(Cl)ccc2n1` [Compound 44] had a pEC50 of 8.00 to 9.00.

Consider `O=C(N[C@H]1CC[C@H](c2nnc(N3CC(OC(F)(F)F)C3)o2)CC1)c1cnc(C(F)F)cn1` [Compound 45], for which the negative-log EC50 (pEC50) in data set [1] was less than 7.00.

The compound `O=C(N[C@H]1CC[C@H](c2nnc(N3CC(OC(F)(F)F)C3)o2)CC1)c1ccc2c(c1)CCCO2` [Compound 46] gave a pEC50 in data set [1] of less than 7.00.

As for `O=C(COc1cc(F)c(Cl)c(F)c1)N[C@H]1CC[C@H](c2nnc(N3CC(OC(F)(F)F)C3)o2)CC1` [Compound 47], in data set [1], the pEC50 is 8.00 to 9.00.

With `O=C(COc1cc(F)c(Cl)cc1F)N[C@H]1CC[C@H](c2nnc(N3CC(OC(F)(F)F)C3)o2)CC1` [Compound 48], the negative-log EC50 (pEC50) in data set [1] is 8.00 to 9.00.

With `O=C(COc1cc(F)c(Cl)cc1Cl)N[C@H]1CC[C@H](c2nnc(N3CC(OC(F)(F)F)C3)o2)CC1` [Compound 49], the pEC50 in data set [1] was less than 7.00.

`O=C(COc1ccc(Cl)c(F)c1F)N[C@H]1CC[C@H](c2nnc(N3CC(OC(F)(F)F)C3)o2)CC1` [Compound 50]: the pEC50 in data set [1] is 8.00 to 9.00.

In data set [1], `C[C@@H]1[C@@H](OC(F)(F)F)CN1c1nnc([C@H]2CC[C@H](NC(=O)COc3ccc(Cl)c(F)c3)CC2)o1` [Compound 51-1] gave a pEC50 of 7.00 to 8.00.

Regarding `C[C@@H]1[C@H](OC(F)(F)F)CN1c1nnc([C@H]2CC[C@H](NC(=O)COc3ccc(Cl)c(F)c3)CC2)o1` [Compound 51-2], in data set [1], the negative-log EC50 (pEC50) is less than 7.00.

Consider `Nc1cc(Cl)ccc1OCC(=O)N[C@H]1CC[C@H](c2nnc(N3CC(OC(F)(F)F)C3)o2)CC1` [Compound 52], for which the negative logarithm of the EC50 (pEC50) in data set [1] is less than 7.00.

Regarding `O=C(COc1ncc(C(F)(F)F)s1)N[C@H]1CC[C@H](c2nnc(N3CC(OC(F)(F)F)C3)o2)CC1` [Compound 53], the pEC50 in data set [1] is less than 7.00.

`O=C(COc1ccc(Cl)c(F)c1)N[C@H]1CC[C@H](c2nnc(N3CC(OC(F)(F)F)C3)o2)C[C@H]1O` [Compound 86] showed a pEC50 in data set [1] of 8.00 to 9.00.

In data set [1], `O=C(CO[C@H]1CC[C@H](c2nnc(N3CC(OC(F)(F)F)C3)o2)CC1)Nc1ccc(Cl)c(F)c1` [Compound 90] had a negative-log EC50 (pEC50) of 8.00 to 9.00.

For `C[C@H]1O[C@@H](O[C@H]2[C@@H](O)C[C@H](O[C@H]3[C@@H](O)C[C@H](O[C@H]4CC[C@@]5(C)[C@H](CC[C@@H]6[C@@H]5C[C@@H](O)[C@]5(C)[C@@H](C7=CC(=O)OC7)CC[C@]65O)C4)O[C@@H]3C)O[C@@H]2C)C[C@H](O)[C@@H]1O` [Digoxin, reference compound], in data set [2], the efflux ratio at 120 min, 10 µM was found to be 44.1.
